Data reported in paper PMC10673995, “Discovery of a novel cardiac-specific myosin modulator using artificial intelligence-based virtual screening” (Nature Communications, 2023).
Values joined by “and” are separate entries in the source; they are usually repeats but may differ in a detail not shown here. Identical values can stand only once.

Key:
[1] = target: bovine cardiac myofibrils (Bos taurus, UniProt Q9BE39); assay: mant-ATP chase single nucleotide turnover, cardiac myofibrils;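 note: bovine cardiac myofibrils at 1 mg/mL in PIPES buffer, 20 µM mant-ATP aged 1 min then chased with 20 mM ATP, fluorescence (ex 360, em 450 nm) read every second for 15 min at 25 °C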
bovine cardiac myofibrils, sequence (Q9BE39 whole entry): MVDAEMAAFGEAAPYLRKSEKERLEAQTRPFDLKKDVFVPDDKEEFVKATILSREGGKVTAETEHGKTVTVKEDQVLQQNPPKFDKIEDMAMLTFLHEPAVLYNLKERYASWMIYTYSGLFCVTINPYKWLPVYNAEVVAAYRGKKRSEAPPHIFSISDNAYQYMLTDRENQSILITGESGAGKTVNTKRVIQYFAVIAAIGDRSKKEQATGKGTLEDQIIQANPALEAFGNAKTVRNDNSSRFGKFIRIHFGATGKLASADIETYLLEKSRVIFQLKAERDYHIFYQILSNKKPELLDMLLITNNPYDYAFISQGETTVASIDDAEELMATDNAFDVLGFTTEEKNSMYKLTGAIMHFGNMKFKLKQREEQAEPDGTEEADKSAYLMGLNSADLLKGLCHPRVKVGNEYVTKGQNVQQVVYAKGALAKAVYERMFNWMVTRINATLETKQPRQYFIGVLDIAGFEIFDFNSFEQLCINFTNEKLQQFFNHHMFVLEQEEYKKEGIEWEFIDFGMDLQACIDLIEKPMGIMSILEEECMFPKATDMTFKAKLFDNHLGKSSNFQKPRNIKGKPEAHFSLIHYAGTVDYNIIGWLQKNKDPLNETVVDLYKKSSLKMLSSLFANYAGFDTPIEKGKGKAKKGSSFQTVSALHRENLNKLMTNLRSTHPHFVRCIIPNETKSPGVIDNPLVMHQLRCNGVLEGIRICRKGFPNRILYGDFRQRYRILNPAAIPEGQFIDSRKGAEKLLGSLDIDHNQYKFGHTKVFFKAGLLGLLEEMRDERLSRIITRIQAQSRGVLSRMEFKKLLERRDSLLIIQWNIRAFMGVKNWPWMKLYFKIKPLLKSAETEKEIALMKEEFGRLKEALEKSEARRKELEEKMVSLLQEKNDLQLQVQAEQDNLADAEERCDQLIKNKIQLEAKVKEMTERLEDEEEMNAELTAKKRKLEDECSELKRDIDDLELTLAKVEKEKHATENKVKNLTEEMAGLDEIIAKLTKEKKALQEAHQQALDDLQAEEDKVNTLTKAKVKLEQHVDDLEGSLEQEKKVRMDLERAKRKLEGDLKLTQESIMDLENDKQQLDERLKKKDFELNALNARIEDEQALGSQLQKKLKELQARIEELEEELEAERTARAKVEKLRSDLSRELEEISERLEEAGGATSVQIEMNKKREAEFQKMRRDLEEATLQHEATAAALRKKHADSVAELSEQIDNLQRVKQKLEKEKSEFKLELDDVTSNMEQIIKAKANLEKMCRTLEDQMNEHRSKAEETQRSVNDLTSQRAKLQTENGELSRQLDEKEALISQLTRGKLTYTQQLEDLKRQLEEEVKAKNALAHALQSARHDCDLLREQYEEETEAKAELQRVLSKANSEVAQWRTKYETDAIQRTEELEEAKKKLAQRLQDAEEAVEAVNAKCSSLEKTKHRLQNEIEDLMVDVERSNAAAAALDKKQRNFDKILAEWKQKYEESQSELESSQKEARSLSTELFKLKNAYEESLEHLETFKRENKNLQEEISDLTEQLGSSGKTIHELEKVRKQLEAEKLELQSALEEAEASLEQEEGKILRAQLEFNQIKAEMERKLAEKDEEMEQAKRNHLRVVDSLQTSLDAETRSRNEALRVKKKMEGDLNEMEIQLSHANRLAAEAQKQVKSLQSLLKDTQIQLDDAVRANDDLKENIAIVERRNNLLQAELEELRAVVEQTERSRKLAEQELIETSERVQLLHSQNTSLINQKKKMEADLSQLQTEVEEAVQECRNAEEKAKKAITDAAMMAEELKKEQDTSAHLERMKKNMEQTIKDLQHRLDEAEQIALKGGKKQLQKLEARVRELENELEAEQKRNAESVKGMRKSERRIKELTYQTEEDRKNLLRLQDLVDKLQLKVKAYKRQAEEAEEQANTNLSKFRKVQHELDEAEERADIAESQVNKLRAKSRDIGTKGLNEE
bovine cardiac myofibrils, sequence (P85100 whole entry partner): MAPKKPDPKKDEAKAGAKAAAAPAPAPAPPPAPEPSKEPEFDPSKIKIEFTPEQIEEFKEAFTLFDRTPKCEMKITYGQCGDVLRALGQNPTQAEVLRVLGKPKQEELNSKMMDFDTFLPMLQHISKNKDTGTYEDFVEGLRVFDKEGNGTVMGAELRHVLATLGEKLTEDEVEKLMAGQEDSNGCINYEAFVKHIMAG
bovine cardiac myofibrils, sequence (Q3SZE5 whole entry partner): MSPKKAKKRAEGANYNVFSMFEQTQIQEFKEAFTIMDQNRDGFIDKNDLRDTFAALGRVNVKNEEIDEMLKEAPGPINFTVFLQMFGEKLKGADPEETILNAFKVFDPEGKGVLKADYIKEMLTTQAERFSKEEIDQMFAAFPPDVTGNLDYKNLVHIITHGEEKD

[2] = target: T1, synthetic thick filaments formed from purified full-length bovine β-cardiac myosin (Bos taurus, UniProt Q9BE39); assay: mant-ATP chase single nucleotide turnover, synthetic thick filaments; assay type: biochemical; settings: for Representative Traces (mant-ATP chase, fluorescence signal over time): Figure 3b
T1 construct: diluting full-length bovine cardiac myosin stock into assay buffer; from tissue; host or cells: bovine cardiac muscle (the text says isolated/purified and describes no preparation)
T1 sequence (Q9BE39 whole entry): as the sequence (Q9BE39 whole entry) above
T1 sequence (P85100 whole entry partner): as the sequence (P85100 whole entry partner) above
T1 sequence (Q3SZE5 whole entry partner): as the sequence (Q3SZE5 whole entry partner) above
Excerpt: We used systems of increasing complexity ranging from the isolated cardiac myosin motor domains (Fig. 3a) to synthetic thick filaments formed from purified full-length bovine cardiac myosin (Fig. 3b) and bovine cardiac myofibrils as substrates in the chase assays (Fig. 3c). In contrast to the isolated myosin motors, synthetic thick filaments contain two myosin head domains per molecule connected via their coiled-coil tail.
Synthetic thick filaments were freshly prepared by diluting full-length bovine cardiac myosin stock into assay buffer (composition in mmol L^−1: 15 PIPES pH 7, 5 MgCl2, 1 DTT) and incubation on ice for 2 h. Bovine myosin S1 and synthetic thick filament concentrations were adjusted to 0.4 μmol L^−1 with assay buffer and 40 μL aliquoted into individual wells of a black 384-well plate (Greiner). Mant-ATP (JenaBioscience) was added to each well to a final concentration of 0.4 μmol L^−1 using an automated injector unit in a ClarioStar Plate Reader (BMG LabTech) and the system was allowed to age for 1 min. The chase phase was started by adding a final concentration of 2 mmol L^−1 ATP using a second automated injector unit. Fluorescence intensity from each well was constantly measured for 15 min every 1 sec at 25 °C with the following settings: excitation at 360 nm with a 20 nm bandwidth and emission at 450 nm with a 20 nm bandwidth. For experiments with cardiac myofibrils the concentration was adjusted to 1 mg m L^−1, and the mant-ATP and ATP concentrations were increased to 20 μmol L^−1 and 20 mmol L^−1, respectively.

[3] = Cardiac myofibrils, individual replicates
[4] = Synthetic Myosin Filaments, individual replicates

## CC(C)n1c(=O)cc(N[C@@H](C)c2ccccc2)[nH]c1=O [Mavacamten]
[1]
  effect on the rate of the fast phase: no effect
[1]; 2 μmol L^−1 Mavacamten or 20 μmol L^−1 F10, control 0.0719 ± 0.0193
  kfast: 0.0637 ± 0.0271 s⁻¹
[1]; [3]
  kfast: 0.1448 s⁻¹ and 0.0188 s⁻¹ and 0.01818 s⁻¹ and 0.1128 s⁻¹ and 0.02375 s⁻¹
  kslow: 0.005449 s⁻¹ and 0.0002437 s⁻¹ and 0.001429 s⁻¹ and 0.00295 s⁻¹ and 0.003851 s⁻¹
  slow phase: 76.35% and 29.71% and 40.4% and 38.11% and 48.47%
[1]; Figure 3c, individual replicates
  Bar graph: 76.35 and 29.71 and 40.4 and 38.11 and 48.47
[1]; t [s] = 6
  Representative Traces: 0.8107
[1]; t [s] = 7
  Representative Traces: 0.8334
[1]; t [s] = 8
  Representative Traces: 0.8024
[1]; t [s] = 9
  Representative Traces: 0.8319
[1]; t [s] = 10
  Representative Traces: 0.793
[1]; t [s] = 11
  Representative Traces: 0.7299
[1]; t [s] = 12
  Representative Traces: 0.7382
[1]; t [s] = 13
  Representative Traces: 0.7429
[1]; t [s] = 14
  Representative Traces: 0.7007
[1]; t [s] = 96
  Representative Traces: 0.4149
[1]; t [s] = 97
  Representative Traces: 0.3828
[1]; t [s] = 98
  Representative Traces: 0.3883
[1]; t [s] = 99
  Representative Traces: 0.382
[1]; t [s] = 100
  Representative Traces: 0.393
[1]; t [s] = 101
  Representative Traces: 0.411
[1]; t [s] = 102
  Representative Traces: 0.3936
[1]; t [s] = 103
  Representative Traces: 0.355
[1]; t [s] = 104
  Representative Traces: 0.403
[1]; t [s] = 105
  Representative Traces: 0.3774
[1]; t [s] = 106
  Representative Traces: 0.4119
[1]; t [s] = 107
  Representative Traces: 0.4038
[1]; t [s] = 108
  Representative Traces: 0.3884
[1]; t [s] = 109
  Representative Traces: 0.3828
[1]; t [s] = 110
  Representative Traces: 0.3991
[1]; t [s] = 111
  Representative Traces: 0.3974
[1]; t [s] = 112
  Representative Traces: 0.3704
[1]; t [s] = 113
  Representative Traces: 0.3729
[1]; t [s] = 114
  Representative Traces: 0.3757
[1]; t [s] = 115
  Representative Traces: 0.3708
[1]; t [s] = 116
  Representative Traces: 0.3829
[1]; t [s] = 117
  Representative Traces: 0.3692
[1]; t [s] = 118
  Representative Traces: 0.3929
[1]; t [s] = 119
  Representative Traces: 0.3896
[1]; t [s] = 120
  Representative Traces: 0.34
[1]; t [s] = 121
  Representative Traces: 0.3562
[1]; t [s] = 122
  Representative Traces: 0.3276
[1]; t [s] = 123
  Representative Traces: 0.3379
[1]; t [s] = 124
  Representative Traces: 0.3372
[1]; t [s] = 125
  Representative Traces: 0.3385
[1]; t [s] = 126
  Representative Traces: 0.3527
[1]; t [s] = 127
  Representative Traces: 0.3498
[1]; t [s] = 128
  Representative Traces: 0.3795
[1]; t [s] = 129
  Representative Traces: 0.3503
[1]; t [s] = 130
  Representative Traces: 0.3889
[1]; t [s] = 131
  Representative Traces: 0.3403
[1]; t [s] = 132
  Representative Traces: 0.3551
[1]; t [s] = 133
  Representative Traces: 0.3408
[1]; t [s] = 134
  Representative Traces: 0.3174
[1]; t [s] = 135
  Representative Traces: 0.3637
[1]; t [s] = 136
  Representative Traces: 0.3269
[1]; t [s] = 137
  Representative Traces: 0.3446
[1]; t [s] = 138
  Representative Traces: 0.322
[1]; t [s] = 140
  Representative Traces: 0.3437
[1]; t [s] = 141
  Representative Traces: 0.3145
[1]; t [s] = 142
  Representative Traces: 0.3341
[1]; t [s] = 143
  Representative Traces: 0.3342
[1]; t [s] = 144
  Representative Traces: 0.3241
[1]; t [s] = 145
  Representative Traces: 0.353
[1]; t [s] = 146
  Representative Traces: 0.3167
[1]; t [s] = 147
  Representative Traces: 0.3169
[1]; t [s] = 150
  Representative Traces: 0.3343
[1]; t [s] = 151
  Representative Traces: 0.3323
[1]; t [s] = 152
  Representative Traces: 0.3258
[1]; t [s] = 153
  Representative Traces: 0.3279
[1]; t [s] = 154
  Representative Traces: 0.3292
[1]; t [s] = 155
  Representative Traces: 0.3236
[1]; t [s] = 156
  Representative Traces: 0.3153
[1]; t [s] = 157
  Representative Traces: 0.312
[1]; t [s] = 158
  Representative Traces: 0.3484
[1]; t [s] = 159
  Representative Traces: 0.3282
[1]; t [s] = 160
  Representative Traces: 0.2877
[1]; t [s] = 161
  Representative Traces: 0.3298
[1]; t [s] = 162
  Representative Traces: 0.3159
[1]; t [s] = 164
  Representative Traces: 0.2984
[1]; t [s] = 165
  Representative Traces: 0.3474
[1]; t [s] = 166
  Representative Traces: 0.3344
[1]; t [s] = 167
  Representative Traces: 0.3033
[1]; t [s] = 168
  Representative Traces: 0.3319
[1]; t [s] = 169
  Representative Traces: 0.3401
[1]; t [s] = 170
  Representative Traces: 0.3298
[1]; t [s] = 171
  Representative Traces: 0.3174
[1]; t [s] = 172
  Representative Traces: 0.335
[1]; t [s] = 173
  Representative Traces: 0.2879
[1]; t [s] = 174
  Representative Traces: 0.2744
[1]; t [s] = 175
  Representative Traces: 0.3144
[1]; t [s] = 177
  Representative Traces: 0.3003
[1]; t [s] = 180
  Representative Traces: 0.3087
[1]; t [s] = 181
  Representative Traces: 0.2965
[1]; t [s] = 182
  Representative Traces: 0.2814
[1]; t [s] = 183
  Representative Traces: 0.3178
[1]; t [s] = 184
  Representative Traces: 0.3078
[1]; t [s] = 185
  Representative Traces: 0.2721
[1]; t [s] = 186
  Representative Traces: 0.3115
[1]; t [s] = 187
  Representative Traces: 0.2704
[1]; t [s] = 188
  Representative Traces: 0.2836
[1]; t [s] = 189
  Representative Traces: 0.2816
[1]; t [s] = 190
  Representative Traces: 0.2901
[1]; t [s] = 191
  Representative Traces: 0.3081
[1]; t [s] = 192
  Representative Traces: 0.2598
[1]; t [s] = 193
  Representative Traces: 0.2745
[2]
  effect on the rate of the fast DRX phase: no effect
[2]; Figure 3b source data, individual replicate values
  Bar graph (Figure 3b, mant-ATP chase): 77.58 and 71.76 and 78.3 and 63.78 and 62.87 and 75.77 and 68.24
[2]; t = 796 s
  Representative Traces (mant-ATP chase, fluorescence signal over time): 0.1167
[2]; t = 797 s
  Representative Traces (mant-ATP chase, fluorescence signal over time): 0.08985
[2]; t = 798 s
  Representative Traces (mant-ATP chase, fluorescence signal over time): 0.08985
[2]; [4]
  kfast: 0.1528 s⁻¹ and 0.02969 s⁻¹ and 0.09681 s⁻¹ and 0.02631 s⁻¹ and 0.06313 s⁻¹ and 0.02802 s⁻¹
  kslow: 0.001307 s⁻¹ and 0.001384 s⁻¹ and 0.002093 s⁻¹ and 0.003633 s⁻¹ and 0.005541 s⁻¹ and 0.004994 s⁻¹
  slow phase: 71.76% and 78.3% and 63.78% and 62.87% and 75.77% and 68.24%
[2]; control 0.0046 ± 0.0007
  kslow: 0.0033 ± 0.0007 s⁻¹
[2]; control […]
  kfast: 0.0593 ± 0.0188 s⁻¹
